Literature values as cited in patent US7087637B2, “Substituted indoles which are PARP inhibitors” (BASF AG, priority 2000, dated 2006).

Details: S. Cuzzocrea et al., Br. J. Pharmacol. 1997, 121, 1065–1074

## NC(=O)c1cccc(N)c1 [3-aminobenzamide]
  effects in a model of circulatory shock: protective effects
